These results are taken from US8492328B2, “Biomarkers and methods for determining sensitivity to insulin growth factor-1 receptor modulators” (Bristol-Myers Squibb Company, priority 2007, dated 2013).

Experiment [1] deals with IGF1R-sal, Colo205, RD1, HT-29, WiDr, GEO, MDA-PCa-2b, MCF-7, H3396, N-87, BT474, and SKBR3 cell lines. The experiment in a line: Drug combination study (Dilution of Ratios) in cellular proliferation assays. Conditions: for Combination Result: in vitro combination with compound 1, multiple cell lines, analyzed by Isobolograms.
A further experiment concerns Rh41. The experiment in a line: In vitro cellular proliferation assay ([3H]-thymidine incorporation). Type of experiment: cell-based, human. The procedure: (§1) All pediatric sarcoma and neuroblastoma cell lines were obtained from Dr. Lee Helman at NIH. All cell lines were grown in RPMI medium supplemented with Glutamax (Gibco/Invitrogen #61870-036), 10% inactivated fetal bovine serum (Gibco/Invitrogen #16140-071), 10 mM Hepes, penicillin and streptomycin.
(§2) Cells were plated at an optimized density for each cell line per well in 96-well microtiter Falcon plates, incubated overnight, and then exposed to a serial dilution of drug. After 72 hours incubation with drug at 37° C., cells were pulsed with 4 μCi/ml [6-3H] thymidine (Amersham Pharmacia Biotech, UK) for 3 hours, trypsinized, harvested onto UniFilter-96, GF/B plates (PerkinElmer, Boston, Mass.) and scintillation was measured on a TopCount NXT (Packard, Conn.). Results were expressed as an IC50, which is the drug concentration required to inhibit cell proliferation by 50% to that of untreated control cells. The mean IC50 and standard deviation (SD) from multiple tests for each cell line were calculated.
In general terms: Uptake of a labelled nucleoside into DNA is a usual measure of proliferation.

The next experiment concerns IMR-32. Described as above. The class given is cell-based, human. On the procedure:
as §1, §2

Another experiment has as its system LG. Described as above. The class given is cell-based, human. On the procedure: as §1, §2
In another experiment the test system is Rh4. The description is as above. The class given is cell-based, human. The procedure:
as §1, §2

In another experiment the test system is SA-4. The description is as above. The class given is cell-based, human. The procedure:
as §1, §2

The subject of a further experiment is H2595. The description is as above. The class given is cell-based, human. On the procedure:
as §1, §2

Another experiment has as its system SK-NSH. Described as above. The class given is cell-based, human. On the procedure: as §1, §2
The next experiment concerns SHSY5Y. The experiment is described as above. Type of experiment: cell-based, human. The procedure: as §1, §2
Another experiment has as its system TC32. The description is as above. The class given is cell-based, human. On the procedure:
as §1, §2

The test system of the next experiment is VW. The description is as above. Type of experiment: cell-based, human. The procedure:
as §1, §2

The subject of a further experiment is SK-NAS. The experiment is described as above. Type of experiment: cell-based, human. The procedure: as §1, §2
In another experiment the test system is ME. The description is as above. The class given is cell-based, human. On the procedure:
as §1, §2

The next experiment concerns SK-LMS-1. Described as above. The class given is cell-based, human. The procedure: as §1, §2
The next experiment relates to TC71. Described as above. Type of experiment: cell-based, human. The procedure: as §1, §2
For a further experiment, the system named is HTB-92. The experiment is described as above. Type of experiment: cell-based, human. On the procedure:
as §1, §2

In a further experiment the test system is H2052. The description is as above. Type of experiment: cell-based, human. The procedure: as §1, §2
The next experiment deals with LAN-1. Described as above. Type of experiment: cell-based, human. The procedure:
as §1, §2

The subject of the next experiment is HT1080/S. The description is as above. The class given is cell-based, human. On the procedure: as §1, §2
The test system of the next experiment is SW-684. Described as above. The class given is cell-based, human. The procedure: as §1, §2
The next experiment has as its system KAG. The experiment is described as above. Type of experiment: cell-based, human. On the procedure:
as §1, §2

The next experiment has as its system Rh36. Described as above. Type of experiment: cell-based, human. The procedure: as §1, §2
A further experiment relates to H513. The description is as above. The class given is cell-based, human. On the procedure:
as §1, §2

The next experiment deals with RDES. The description is as above. Type of experiment: cell-based, human. On the procedure:
as §1, §2

Another experiment concerns CTR. The description is as above. Type of experiment: cell-based, human. The procedure: as §1, §2
For the next experiment, the system named is 5838. Described as above. Type of experiment: cell-based, human. The procedure: as §1, §2
In a further experiment the test system is Rh1. Described as above. The class given is cell-based, human. On the procedure: as §1, §2
The test system of the next experiment is JD. Described as above. The class given is cell-based, human. The procedure:
as §1, §2

In a further experiment the test system is To184.T. The description is as above. Type of experiment: cell-based, human. The procedure: as §1, §2
A further experiment relates to H211. The description is as above. Type of experiment: cell-based, human. The procedure: as §1, §2

Entries after “also recorded” stand apart in the source; their conditions may differ.

Take `CS(=O)(=O)CCNCc1ccc(-c2ccc3ncnc(Nc4ccc(OCc5cccc(F)c5)c(Cl)c4)c3c2)o1` [lapatinib]: the “Combination Result” value in [1] is listed as “synergistic effects; also recorded: Synergy”.
Still for that read-out and setting: under `COc1cc2ncnc(Nc3ccc(F)c(Cl)c3)c2cc1OCCCN1CCOCC1` [gefitnib] stands “synergistic effects; also recorded: Synergy”; under `CC[C@]1(O)C[C@H]2CN(CCc3c([nH]c4ccccc34)[C@@](C(=O)OC)(c3cc4c(cc3OC)N(C=O)[C@H]3[C@@](O)(C(=O)OC)[C@H](OC(C)=O)[C@]5(CC)C=CCN6CC[C@]43[C@@H]65)C2)C1` [vincristine], “Additive”.
In the case of `C[C@@]1(C(=O)Nc2ccc(F)nc2)CCCN1c1nc(Nc2cc(C3CC3)[nH]n2)c2cccn2n1` [Compound 2, (2S)-1-(4-((5-cyclopropyl-1H-pyrazol-3-yl)amino)pyrrolo[2,1-f][1,2,4]triazin-2-yl)-N-(6-fluoro-3-pyridinyl)-2-methyl-2-pyrrolidinecarboxamide], the IC50 amounted to 4.7 nM in the experiment on Rh41 (Homo sapiens, Rh41, 72 h); 261 nM in the experiment on IMR-32 (Homo sapiens, IMR-32, 72 h); 37.5 nM in the experiment on LG (Homo sapiens, 72 h); 4 nM with Rh4 (Homo sapiens, Rh4, 72 h); 1300 nM in the experiment with SA-4 (Homo sapiens, 72 h); 4480 nM with H2595 (Homo sapiens, NCI-H2595, 72 h). For the same compound, the IC50 turned out to be 139 nM with SK-NSH (Homo sapiens, SK-N-SH, 72 h); 106 nM in the experiment on SHSY5Y (Homo sapiens, SH-SY5Y, 72 h); 8.4 nM in the experiment with TC32 (Homo sapiens, TC-32, 72 h); 19 nM with VW (Homo sapiens, 72 h); 497 nM with SK-NAS (Homo sapiens, SK-N-AS, 72 h); 15 nM in the experiment on ME (Homo sapiens, 72 h). Further, the IC50 in the experiment on SK-LMS-1 (Homo sapiens, SK-LMS-1, 72 h) was found to be 687 nM; with TC71 (Homo sapiens, TC-71, 72 h), 14.3 nM; in the experiment with HTB-92 (Homo sapiens, 72 h), 1020 nM; in the experiment with H2052 (Homo sapiens, NCI-H2052, 72 h), 1050 nM; with LAN-1 (Homo sapiens, LAN1, 72 h) it was 40 nM; in the experiment on HT1080/S (Homo sapiens, HT-1080, 72 h), 531 nM. The IC50 worked out at 5000 nM with SW-684 (Homo sapiens, SW684, 72 h); 1660 nM in the experiment on KAG (Homo sapiens, 72 h); 1430 nM in the experiment with Rh36 (Homo sapiens, 72 h); 4450 nM in the experiment with H513 (Homo sapiens, H513, 72 h); 11.7 nM with RDES (Homo sapiens, RD-ES, 72 h); 253 nM in the experiment on CTR (Homo sapiens, 72 h). Moreover, the IC50 with 5838 (Homo sapiens, 72 h) was 34 nM; in the experiment on Rh1 (Homo sapiens, RH-1, 72 h), 26.7 nM; in the experiment on JD (Homo sapiens, 72 h) it was 391 nM; in the experiment on To184.T (Homo sapiens, 72 h), 470 nM; in the experiment on H211 (Homo sapiens, NCI-H211, 72 h), 733 nM. For the same compound, the “Sensitivity Classification” value in the experiment with Rh41 (Rh41 (Rhabdomyosarcoma)) was “S (“S” means sensitive)”; in the experiment with IMR-32 (IMR-32 (Neuroblastoma)) it was “S (“S” means sensitive)”; in the experiment on LG (LG (Ewing)), “S (“S” means sensitive)”; in the experiment on Rh4 (Rh4 (Rhabdomyosarcoma)), “S (“S” means sensitive)”; in the experiment with SA-4 (SA-4 (Liposarcoma)), “R (“R” means resistant to the corresponding compounds.)”; in the experiment on H2595 (H2595 (Melignant Pleural Mesothelioma)) it was “R (“R” means resistant to the corresponding compounds.)”. The “Sensitivity Classification” value is “S (“S” means sensitive)” in the experiment on SK-NSH (SK-NSH (Neuroblastoma)); “S (“S” means sensitive)” with SHSY5Y (SHSY5Y (Neuroblastoma)); “S (“S” means sensitive)” in the experiment with TC32 (TC32 (Ewing)); “S (“S” means sensitive)” in the experiment with VW (VW (Ewing)); “R (“R” means resistant to the corresponding compounds.)” in the experiment with SK-NAS (SK-NAS (Neuroblastoma)); “S (“S” means sensitive)” with ME (ME (Rhabdomyosarcoma)). Moreover, the “Sensitivity Classification” value with SK-LMS-1 (SK-LMS-1 (Leiomyosarcoma)) is reported as “R (“R” means resistant to the corresponding compounds.)”; with TC71 (TC71 (Ewing)) it was “S (“S” means sensitive)”; in the experiment with HTB-92 (HTB-92 (Liposarcoma)), “R (“R” means resistant to the corresponding compounds.)”; in the experiment on H2052 (H2052 (Melignant Pleural Mesothelioma)) it was “R (“R” means resistant to the corresponding compounds.)”; in the experiment on LAN-1 (LAN-1 (Neuroblastoma)) it was “S (“S” means sensitive)”; in the experiment on HT1080/S (HT1080/S (Fibrosarcoma)), “R (“R” means resistant to the corresponding compounds.)”. Also, the “Sensitivity Classification” value is on record as “R (“R” means resistant to the corresponding compounds.)” in the experiment with SW-684 (SW-684 (Fibrosarcoma)); “R (“R” means resistant to the corresponding compounds.)” with KAG (KAG (Ewing)); “R (“R” means resistant to the corresponding compounds.)” with Rh36 (Rh36 (Rhabdomyosarcoma)); “R (“R” means resistant to the corresponding compounds.)” with H513 (H513 (Melignant Pleural Mesothelioma)); “S (“S” means sensitive)” in the experiment on RDES (RDES (Ewing)); “S (“S” means sensitive)” in the experiment on CTR (CTR (Rhabdomyosarcoma)). Further, the “Sensitivity Classification” value with 5838 (5838 (Ewing)) is on record as “S (“S” means sensitive)”; with Rh1 (Rh1 (Rhabdomyosarcoma)), “S (“S” means sensitive)”; with JD (JD (Ewing)), “R (“R” means resistant to the corresponding compounds.)”; in the experiment on To184.T (To184.T (Liposarcoma)), “R (“R” means resistant to the corresponding compounds.)”; with H211 (H211 (Melignant Pleural Mesothelioma)), “R (“R” means resistant to the corresponding compounds.)”. The “sensitivity/resistance classification in words” value in the experiment on SK-NAS (SK-NAS) is on record as “resistant”; with CTR (CTR), “sensitive”; in the experiment with JD (JD) it was “resistant”. The “Combination result of compound 2” value in experiment [1] (compound 2 with HER1/HER2 inhibitors or dasatinib, data not shown) is recorded as “synergy effects”.
With `N.N.[Cl][Pt][Cl]` [cisplatin], the “Combination Result” value in experiment [1] is reported as “Additive”.
On the same count and under the same terms, under `CC(=O)O[C@H]1C(=O)[C@@]2(C)[C@H]([C@H](OC(=O)c3ccccc3)[C@]3(O)C[C@H](OC(=O)[C@H](O)[C@@H](NC(=O)c4ccccc4)c4ccccc4)C(C)=C1C3(C)C)[C@]1(OC(C)=O)CO[C@@H]1C[C@@H]2O` [paclitaxel] stands “Additive”; under `COc1cc([C@@H]2c3cc4c(cc3[C@@H](O[C@@H]3O[C@@H]5CO[C@@H](C)O[C@H]5[C@H](O)[C@H]3O)[C@H]3COC(=O)[C@H]23)OCO4)cc(OC)c1O` [VP-16], “Additive”; under `C#Cc1cccc(Nc2ncnc3cc(OCCOC)c(OCCOC)cc23)c1` [erlotinib], “synergistic effects; also recorded: Synergy”.

In general, IC50 refers to the concentration needed to halve the response being measured. The low end stands for higher potency, the high end for lower potency.
